Data from ChEMBL document CHEMBL1201862, “PubChem BioAssay data set” (2004).
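Dose response: 5 concentrations. Exposure: 48 h. Format: 96-well plates. Endpoint: linear interpolation; highest concentration if not reached. At the GI50, growth is halved.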 Activity calls are given as the source filed them. No stated cut-off is given here; in the data, active = GI50 up to about 1.1 µM and inactive = higher.

Key:
Assay in all cases: DTP human tumour cell line panel, 48 h
A549 = tested on: A549
CAKI-1 = tested on: CAKI-1
COLO 205 = tested on: COLO 205
DLD-1 = tested on: DLD-1
DMS-114 = tested on: DMS-114
HCC 2998 = tested on: HCC 2998
HCT-116 = tested on: HCT-116
HOP-18 = tested on: HOP-18
HOP-62 = tested on: HOP-62
HOP-92 = tested on: HOP-92
LOX IMVI = tested on: LOX IMVI
MCF7 = tested on: MCF7
NCI/ADR-RES = tested on: NCI/ADR-RES
SF-268 = tested on: SF-268
SN12C = tested on: SN12C
UACC-257 = tested on: UACC-257
XF498 = tested on: XF498
RXF 631 = tested on: RXF 631
SR = tested on: SR
LXFL 529 = tested on: LXFL 529

Measured: GI50

C=C1C(=O)O[C@H]2C1[C@H](OC(=O)/C(C)=C\COC(C)=O)C[C@]1(CO1)[C@@H]1[C@H](O)[C@H]3O[C@@]3(C)[C@@H]12 (stereo partly specified)
inactive: A549 49.2 µM | CAKI-1 14.3 µM | COLO 205 8.73 µM | DLD-1 12.2 µM | DMS-114 19.4 µM | HCC 2998 15 µM | HCT-116 13.1 µM | HOP-18 20 µM | HOP-62 > 100 µM | HOP-92 15.2 µM | LOX IMVI 16.7 µM | MCF7 11.5 µM | NCI/ADR-RES 21.4 µM | SF-268 21.1 µM | SN12C 22.3 µM | UACC-257 16.8 µM | XF498 19.3 µM

O=C(Nc1ccc(C(F)(F)F)cc1[N+](=O)[O-])C(=O)Nn1c(S)nc2ccccc2c1=O
inactive: A549 > 100 µM | CAKI-1 > 100 µM | COLO 205 > 100 µM | DLD-1 > 100 µM | DMS-114 > 100 µM | HCC 2998 > 100 µM | HCT-116 > 100 µM | HOP-18 > 100 µM | HOP-62 > 100 µM | HOP-92 > 100 µM | LOX IMVI > 100 µM | RXF 631 > 100 µM | SF-268 > 100 µM | SN12C > 100 µM | SR > 100 µM | UACC-257 > 100 µM | XF498 > 100 µM

C=C1C(=O)OC2/C=C(\C)CC(O)/C=C(/CO)CC(OC(=O)/C(C)=C/C)C12 (stereo unspecified)
inactive: A549 155 µM | CAKI-1 34.8 µM | COLO 205 19.3 µM | DLD-1 26.8 µM | DMS-114 14.3 µM | HCC 2998 42.7 µM | HCT-116 29.6 µM | HOP-18 26.3 µM | HOP-62 95.3 µM | HOP-92 30.9 µM | LOX IMVI 12.3 µM | MCF7 21.7 µM | NCI/ADR-RES 130 µM | SF-268 46.8 µM | SN12C 131 µM | UACC-257 45.6 µM | XF498 12.2 µM

CCO/N=[N+](\[O-])N(CC)CC
inactive: A549 > 100 µM | CAKI-1 > 100 µM | HCC 2998 > 100 µM | HCT-116 > 100 µM | HOP-62 > 100 µM | HOP-92 > 100 µM | LOX IMVI > 100 µM | LXFL 529 > 100 µM | RXF 631 > 100 µM | SF-268 > 100 µM | SN12C > 100 µM | SR > 100 µM | UACC-257 > 100 µM | XF498 > 100 µM

COc1ccc(/C(Cl)=C(\C=O)c2ccc(Cl)cc2)cc1OC
inactive: A549 6.17 µM | CAKI-1 4.59 µM | COLO 205 3.77 µM | DLD-1 5.12 µM | DMS-114 4.47 µM | HCC 2998 14.9 µM | HCT-116 4.33 µM | HOP-18 19.1 µM | HOP-62 15.9 µM | LOX IMVI 3.45 µM | LXFL 529 7.28 µM | RXF 631 3.69 µM | SF-268 12.3 µM | SN12C 3.72 µM | SR 2.49 µM | UACC-257 6.55 µM

Nc1nc(SCCC/C=C/B(O)O)nc2c1ncn2C1OC(CO)C(O)C1O (stereo unspecified)
inactive: A549 > 243 µM | COLO 205 > 243 µM | DLD-1 > 243 µM | HCC 2998 > 243 µM | HCT-116 > 243 µM | HOP-62 > 243 µM | HOP-92 > 243 µM | LOX IMVI > 243 µM | LXFL 529 > 243 µM | SF-268 > 243 µM | SN12C > 243 µM | SR > 243 µM | UACC-257 > 243 µM | XF498 > 243 µM

Cn1nc2ccc3nccc(NCCNCCCl)c3c2n1
inactive: A549 > 100 µM | CAKI-1 > 10 µM | COLO 205 > 100 µM | DLD-1 > 100 µM | DMS-114 > 100 µM | HCC 2998 > 100 µM | HCT-116 > 100 µM | HOP-62 > 100 µM | HOP-92 > 100 µM | LOX IMVI > 100 µM | LXFL 529 > 100 µM | SF-268 > 100 µM | SN12C > 100 µM | SR > 100 µM | XF498 > 100 µM

CN(Cc1cnc2c(N)nc(N)nc2n1)c1ccc(Cl)cc1
inactive: CAKI-1 > 100 µM | COLO 205 > 100 µM | HOP-62 39.3 µM | MCF7 95.5 µM | NCI/ADR-RES 16.2 µM | SF-268 33.6 µM | SN12C > 100 µM | SR 62.2 µM | UACC-257 78.5 µM

COc1cc([N+](=O)[O-])ccc1NC(=O)C(F)(F)F
inactive: A549 > 100 µM | CAKI-1 > 100 µM | COLO 205 > 100 µM | HCT-116 > 100 µM | HOP-62 > 100 µM | LOX IMVI > 100 µM | MCF7 > 100 µM | NCI/ADR-RES > 100 µM | SF-268 > 100 µM | SN12C > 100 µM | SR > 100 µM | UACC-257 > 100 µM
